Reference: US9597402B2, “Sustained release small molecule drug formulation” (DURECT CORPORATION, priority 2005, dated 2017)

Legend:
[1] = Intrinsic dissolution rate; type: physicochemical
Description: (§1) In one embodiment, a small molecule drug formulation includes a small molecule psychotherapeutic drug, such as a small molecule antipsychotic, dopamine receptor agonist, dopamine receptor antagonist, serotonin receptor agonist, serotonin receptor antagonist, and serotonin uptake inhibitor drug. […] R209130-base has the molecular formula C19H20FNO. R209130-mandelic acid salt (R209130) has the molecular formula C19H20FNO.C8H8O3. R209130-tartaric acid salt (R167154) has the molecular formula C19H20FNO.C4H6O6.

[2] = Solubility in benzyl alcohol (BA); details: temperature not given
Description: as §1

[3] = Solubility in benzyl benzoate (BB); details: temperature not given
Description: as §1

Solubility in H2O = details: pH 7.2
Description: as §1

Solubility at pH 7 = details: cell states pH 7.2
Description: as §1

Cc1nc2n(c(=O)c1CCN1CCC(c3noc4cc(F)ccc34)CC1)CCCC2 [Risperidone base, Risperidone]
Intrinsic dissolution rate [1]: 0.0025 mg/cm^2 · min

Cc1nc2n(c(=O)c1CCN1CCC(c3noc4cc(F)ccc34)CC1)CCCC2 [Risperidone pamoate, Risperidone-pamoate]
Solubility in BA [2]: 2970 µg/mL
Solubility in BB [3]: 50 µg/mL
Solubility in H2O (Solubility in H2O): 0.2 (pH 7.2) mg/ml
Solubility at pH 7 (Solubility at pH 7): 0.2 (pH 7.2) mg/ml
